The values below come from ChEMBL document CHEMBL6127117, “Divergent Total Synthesis of Isoflavone Natural Products and Their Potential as Therapeutic Agents for TTR Amyloidosis” (J Nat Prod, 2024).

Assay [1] has as its target Transthyretin (Homo sapiens) (UniProt P02766). Put plainly: Binding affinity to TTR in human plasma assessed as stabilization of TTR tetramer by measuring fluorescence intensity measured after 6 hrs by absorbance based analysis. Conditions: dose 20-100 µM. The class given is cell-free.
For assay [2] the target is unchanged. Put plainly: Binding affinity to TTR in human plasma assessed as stabilization of TTR tetramer by measuring fluorescence intensity at 50 uM measured after 6 hrs by absorbance based analysis relative to control. Format: cell-free.
The test system of assay [3] is Transthyretin (Homo sapiens), P02766 [V50M]. Description: Inhibition of acid mediated TTR V30M mutant (unknown origin) aggregation under pH 4.7 at 20 uM measured upto 6 days by thioflavin-T fluorescence assay. The note with it: time <= 6.0 day.
The target in assay [4] is Transthyretin (Homo sapiens) (UniProt P02766). Put plainly: Binding affinity to TTR in human plasma assessed as stabilization of TTR tetramer by measuring fluorescence intensity at 20 uM measured after 6 hrs by absorbance based analysis relative to control. Format: cell-free.
The target is the same in assay [5]. Description: Binding affinity to TTR in human plasma assessed as stabilization of TTR tetramer by measuring fluorescence intensity at 100 uM measured after 6 hrs by absorbance based analysis relative to control. Format: cell-free.

SMILES strings stand for the structures. Activity calls are given as the source filed them. No cut-off for these calls is given here.

As to `CC(C)=CCc1c2c(c3occ(-c4ccc(O)cc4O)c(=O)c3c1O)C=CC(C)(C)O2`, the Activity entry is “Dose-Dependent Effect” in assay [1], 50% in assay [2], 70% in assay [4] and 35% in assay [5]. Also, in assay [3], the inhibition entry was “Active”.
With `CC1(C)C=Cc2c(cc3occ(-c4ccc(O)cc4)c(=O)c3c2O)O1`, the Activity entry in assay [1] is “Dose-Dependent Effect”. Further, the inhibition result in assay [3] is “Active”.
With `CC(C)=CCc1cc(-c2coc3cc4c(c(O)c3c2=O)C=CC(C)(C)O4)ccc1O`, the Activity entry in assay [1] was “Dose-Dependent Effect”. Also, the inhibition entry in assay [3] is “inactive”.
For `CC(C)=CCOc1ccc(-c2coc3c4c(cc(O)c3c2=O)OC(C)(C)C=C4)cc1`, the Activity entry in assay [1] was “Dose-Dependent Effect”. Also, in assay [3], the inhibition entry is “inactive”.
Consider `CC(C)=CCc1cc(-c2coc3c4c(cc(O)c3c2=O)OC(C)(C)C=C4)ccc1O`, for which, in assay [1], the Activity result is “Dose-Dependent Effect”. In assay [3], the inhibition result is “inactive”.
In the case of `CC1(C)C=Cc2c(cc(O)c3c(=O)c(-c4ccc(O)cc4)coc23)O1`, in assay [1], the Activity entry is “Dose-Dependent Effect”. The inhibition entry in assay [3] was “Active”.
For `CC(C)=CCOc1ccc(-c2coc3cc4c(c(O)c3c2=O)C=CC(C)(C)O4)cc1`, in assay [1], the Activity result is “Dose-Dependent Effect”. In assay [3], the inhibition result was “inactive”.
Consider `C=CC(C)(C)c1cc(-c2coc3cc4c(c(O)c3c2=O)C=CC(C)(C)O4)ccc1O`, for which, in assay [1], the Activity entry was “Dose-Dependent Effect”. In addition, the inhibition entry in assay [3] was “inactive”.
For `CC(C)=CCc1c2c(c(O)c3c(=O)c(-c4ccc(O)c(O)c4)coc13)C=CC(C)(C)O2`, in assay [1], the Activity entry is “Dose-Dependent Effect”. In addition, in assay [3], the inhibition result was “Active”.
